According to patent publication US20030129664A1, “Novel Assays” (priority 1999, published 2003):

What was measured:
parental HEK-293 cells = experiment: FLIPR calcium assay in control cells (non-transfected HEK-293, other receptors or Gαqi5 alone); type: cell-based; conditions: cells transfected with other receptors or Gαqi5 alone
Protocol: A functional assay was performed with FLIPR using the fluorescent calcium indicator dye Fluo-3 (Molecular Probes) on a 96 well platform. HEK-293 cells, either expressing the receptor with the chimeric G protein (Gαqi5) or wild type cells were loaded with Fluo-3 as follows. Stable HEK-293 clones expressing RP-23 receptor with Gαqi5and/or cells expressing RP-23R alone, or parental cells were plated at a density of 70,000 cells/well in a 96 well plate. On the day of the experiment, the RP-23 receptor expressing cells were loaded with fluorescent solution (Dulbecco's modified medium with 10% fetal bovine serum containing 4 μM Fluo-3 and […] pluronic acid). The cells were incubated at 37° C. for one hour in a humidified chamber. Following the incubation, cells were Washed five times in Hanks' with 20 mM Hepes and 0.1% BSA (pH 7.4). The cells were analyzed using the FLIPR system to measure the mobilization of intracellular calcium in response to different compounds.
HEK-293 cells that endogenously express some GPCRs such as PACAP receptors can be used as an internal control for assays. Background signal was established with all of the compounds in the parental HEK-293 cells (non-transfected) or parental HEK-293 cells transfected with Gαqi5 chimeric protein using the FLIPR assay. […]

RP-23 receptor = biological target: T1, RP-23 receptor (Mus musculus, UniProt P30731); experiment: FLIPR functional assay of intracellular calcium mobilization (Fluo-3) in HEK-293 cells expressing RP-23 receptor with Gαqi5; type: cell-based
T1 construct: expressed in transfected cells; G418 and hygromycin selection
T1 sequence (P30731 18-423): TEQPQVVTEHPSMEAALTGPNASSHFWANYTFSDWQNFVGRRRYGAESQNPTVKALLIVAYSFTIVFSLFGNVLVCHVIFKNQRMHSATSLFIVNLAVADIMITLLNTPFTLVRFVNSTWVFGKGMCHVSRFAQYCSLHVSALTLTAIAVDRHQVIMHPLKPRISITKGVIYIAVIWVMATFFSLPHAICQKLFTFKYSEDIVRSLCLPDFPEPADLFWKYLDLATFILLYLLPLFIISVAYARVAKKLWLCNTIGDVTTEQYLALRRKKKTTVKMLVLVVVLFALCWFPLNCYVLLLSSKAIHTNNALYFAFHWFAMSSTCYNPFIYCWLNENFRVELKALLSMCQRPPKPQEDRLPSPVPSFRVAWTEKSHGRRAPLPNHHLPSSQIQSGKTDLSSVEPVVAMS
Protocol: The RP-23 gene (Harrigan et al., Molecular Endocrinol. 5:1331-1338 (1991)) was obtained and used to generate a mammalian expression vector. Specifically, 40 μg of RP-23 receptor DNA was digested with 100 units of EcoRI enzyme (Pharmacia) (Lambda ZAP II) at 37 degrees C., isolated on a 1% agarose gel and subcloned into the Eco RI site of pcDNA 3.0 (InVitrogen, San Diego, Calif.). The expression vector so produced was called pcDNA 3.0-RP-23. Plasmid DNA was prepared using the Qiaprep system from Qiagen.
HEK-293 cells were transfected with pcDNA 3.0-RP-23 using the calcium-phosphate method and subsequently transfected with DNA encoding a chimeric G protein (Gαqi5). This is Gq alpha with the C-terminal amino acids changed from EYNLV to DCGLF. The entire protein was subcloned in an expression vector (pCEP, Molecular Devices). […] The presence of mRNA specific for clone RP-23 was assessed by Northern Blot Analysis and by the reverse transcriptase polymerase chain reaction (RT-PCR). […]
A functional assay was performed with FLIPR using the fluorescent calcium indicator dye Fluo-3 (Molecular Probes) on a 96 well platform. […] The cells were analyzed using the FLIPR system to measure the mobilization of intracellular calcium in response to different compounds.

In the case of CCCCCCCCCCCCC/C=C/[C@@H](O)[C@@H](N)COP(=O)(O)O [sphingosine-1-PO4], the “dose-response relationship of calcium response in control cells” value (parental HEK-293 cells) is reported as “not in non-transfected cells or in cells transfected with other receptors or Gαqi5 alone”, the “calcium response (FLIPR signal) compared to control cells” value (RP-23 receptor; HEK-293 cells expressing RP-23 receptor and Gαqi5 chimeric protein, compounds dissolved at 3 μM, compared with parental HEK-293 and HEK-293 transfected with Gαqi5) is reported as “consistently elicited a significant signal” and the “dose-response relationship of calcium response” value (RP-23 receptor; cells transfected with RP-23 and Gαqi5) is reported as “dose-response relationship”.
